Laboratory results published in patent publication US11802120B2, “Fused cyclic urea derivatives as CRHR2 antagonist” (RaQualia Pharma Inc., priority 2018, dated 2023).

target: T1, human CRHR2-alpha (Homo sapiens, UniProt Q13324); test: cAMP functional assay for human CRHR2 (LANCE Ultra cAMP, TR-FRET); format: cell-based; details: CHO-K1 cells expressing human CRHR2-alpha, agonist human urocortin2 at EC80, cAMP; read-out: IC50 against CRHR2
T1 sequence (Q13324 1-411): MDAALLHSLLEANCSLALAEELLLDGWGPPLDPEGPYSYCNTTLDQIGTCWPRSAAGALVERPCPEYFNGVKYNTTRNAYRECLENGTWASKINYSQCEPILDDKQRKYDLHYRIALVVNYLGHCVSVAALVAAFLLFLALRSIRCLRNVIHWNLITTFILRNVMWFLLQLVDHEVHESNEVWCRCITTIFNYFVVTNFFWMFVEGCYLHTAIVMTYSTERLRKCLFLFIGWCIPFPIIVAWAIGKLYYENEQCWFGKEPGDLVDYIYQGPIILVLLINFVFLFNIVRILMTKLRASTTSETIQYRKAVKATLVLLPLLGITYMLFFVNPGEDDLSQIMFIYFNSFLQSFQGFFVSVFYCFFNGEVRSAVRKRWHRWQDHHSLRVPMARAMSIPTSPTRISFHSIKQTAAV
How it was run: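 CHO-K1 cells stably expressing each receptor, serum-starved and cryopreserved, were preincubated with compound 30 min at 25° C in HBSS buffer with 0.5 mM IBMX, pH 7.4, then stimulated 30 min with EC80 agonist (urocortin2 for CRHR2, CRF for CRHR1). cAMP read by TR-FRET; IC50 from percent-inhibition curves.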

IC50, < 300 nM:
Cc1cc2cc(-n3c(=O)n(C[C@H]4CC[C@H](NC(=O)c5cc(Cl)cnc5C(F)F)CC4)c4cccnc43)cnc2n1C [Example 708, 5-chloro-2-(difluoromethyl)-N-((1r,4r)-4-((3-(1,2-dimethyl-1H-pyrrolo[2,3-b]pyridin-5-yl)-2-oxo-2,3-dihydro-1H-imidazo[4,5-b]pyridin-1-yl)methyl)cyclohexyl)nicotinamide]
O=C(N[C@H]1CC[C@H](Cn2c(=O)n(-c3ccc4ncccc4c3)c3ncccc32)CC1)c1cc(Cl)cnc1C(F)F [Example 362, 5-chloro-2-(difluoromethyl)-N-((1r,4r)-4-((2-oxo-3-(quinolin-6-yl)-2,3-dihydro-1H-imidazo[4,5-b]pyridin-1-yl)methyl)cyclohexyl)nicotinamide]
CCn1nc2ccccc2c1C(=O)N[C@H]1CC[C@H](Cn2c(=O)n(-c3ccc(OC)cc3)c3ccccc32)CC1 [Example 37, 2-ethyl-N-((1r,4r)-4-((3-(4-methoxyphenyl)-2-oxo-2,3-dihydro-1H-benzo[d]imidazol-1-yl)methyl)cyclohexyl)-2H-indazole-3-carboxamide]
COc1ccc(-n2c(=O)n(C[C@H]3CC[C@H](NC(=O)c4cc(Cl)cnc4Cl)CC3)c3ccccc32)cn1 [Example 237, 2,5-dichloro-N-((1r,4r)-4-((3-(6-methoxypyridin-3-yl)-2-oxo-2,3-dihydro-1H-benzo[d]imidazol-1-yl)methyl)cyclo-hexyl)nicotinamide]
Cc1ncc(Cl)cc1C(=O)N[C@H]1CC[C@H](Cn2c(=O)n(-c3ccc(N4CCC(O)CC4)nc3)c3ccccc32)CC1 [Example 96, 5-chloro-N-((1r,4r)-4-((3-(6-(4-hydroxypiperidin-1-yl)pyridin-3-yl)-2-oxo-2,3-dihydro-1H-benzo[d]imidazol-1-yl)methyl)cyclohexyl)-2-methylnicotinamide]
Cc1cc(C)c(-n2c(=O)n(C[C@H]3CC[C@H](NC(=O)c4cc(Cl)cnc4C)CC3)c3ccccc32)cn1 [Example 330, 5-chloro-N-((1r,4r)-4-((3-(4,6-dimethylpyridin-3-yl)-2-oxo-2,3-dihydro-1H-benzo [d]imidazol-1-yl)methyl)cyclohexyl)-2-methylnico-tinamide]
O=C(N[C@H]1CC[C@H](Cn2c(=O)n(-c3cccc(-c4cn[nH]c4)c3)c3ccccc32)CC1)c1cc(Cl)cnc1C(F)F [Example 697, N-((1r,4r)-4-((3-(3-(1H-pyrazol-4-yl)phenyl)-2-oxo-2,3-dihydro-1H-benzo[d]imidazol-1-yl)methyl)cyclohexyl)-5-chloro-2-(difluoromethyl)nicotinamide]
Cc1ncc(Cl)cc1C(=O)N[C@H]1CC[C@H](Cn2c(=O)n(-c3ccc(OC4COC4)nc3)c3ccccc32)CC1 [Example 140, 5-chloro-2-methyl-N-((1r,4r)-4-((3-(6-(oxetan-3-yloxy)pyridin-3-yl)-2-oxo-2,3-dihydro-1H-benzo[d]imidazol-1-yl)methyl)cyclohexyl)nicotinamide]
COc1ccc(Cn2c(=O)n(C[C@H]3CC[C@H](NC(=O)c4cc(Cl)cnc4C)CC3)c3cccnc32)c(OC)c1 [Example 251, 5-chloro-N-((1r,4r)-4-((3-(2,4-dimethoxybenzyl)-2-oxo-2,3-dihydro-1H-imidazo[4,5-b]pyridin-1-yl)methyl)cyclo-hexyl)-2-methylnicotinamide]
CNC(=O)c1ccc(-n2c(=O)n(C[C@H]3CC[C@H](NC(=O)c4cc(Cl)cnc4C(F)F)CC3)c3cc(F)ccc32)cn1 [Example 530, 5-(3-(((1r,4r)-4-(5-chloro-2-(difluoromethyl)nicotinamido)cyclohexyl)methyl)-5-fluoro-2-oxo-2,3-dihydro-1H-benzo [d]imidazol-1-yl)-N-methylpicolinamide]
